Test results taken from patent EP1135374B9, “BENZIMIDAZOLE COMPOUNDS THAT ARE VITRONECTIN RECEPTOR ANTAGONISTS” (SCHERING CORPORATION, priority 1998, dated 2000).

What was measured:
[1] = molecular target: T1, αvβ3 receptor (purified from human placenta) (Homo sapiens, UniProt P05106+P06756); test: competition radioligand binding assay, 125I-echistatin to αvβ3 receptor; conditions: Table 16; αvβ3, inhibition of specific 125I-echistatin binding
T1 construct: αvβ3 receptor (purified from human placenta); from tissue; host or cells: human placenta
Method: The following assay procedure, which is a competition radioligand binding assay, was carried out to determine the activity of the foregoing compounds as αvβ3 antagonists. The competitive assay procedure described in Kumar, et. al., "Biochemical Characterization Of The Binding Of Echistatin To Integrin αvβ3 Receptor", Journal Of Pharmacology And Experimental Therapeutics, Vol. 283, No. 2, pp. 843-853 (1997) was employed. Thus, binding of ^125I-echistatin (radiolabeled by the chloramine-T method to a specific activity of 2000 Ci/mmol (Amersham, Chicago, Il.)) to αvβ3 receptor (purified from human placenta), both prepared as described in Kumar, et al., was competed by the compounds prepared in the foregoing examples. Purified αvβ3 receptor was coated onto Microlite-2 plates at a concentration of 50 ng/well. ^125I-echistatin was added to the wells to a final concentration of 0.05 nM in binding buffer (50 µl/well) in the presence of the competing test compound. The competing test compounds were employed at serially diluted concentrations ranging from 1 pM to 100 nM. After a 3 hour incubation at room temperature, the wells were washed, and radioactivity, reflecting binding by ^125 I-echistatin to αvβ3 receptors, was determined with Top Count (Packard). Each data point is an average of values from triplicate wells.
Specific binding of ^125I-echistatin was calculated as the difference between the amount of ^125I-echistatin bound in the absence (total binding) and the amount of ^125I-echistatin bound in the presence of a 200-fold molar excess of unlabeled echistatin (nonspecific binding). The efficacy of the test compounds for inhibiting specific binding of ^125I-echistatin to αvβ3 receptors was determined by plotting a graph of specific binding (y-axis) as a function of test compound concentration (x-axis). The concentration of test compound required to inhibit 50% of the specific binding (IC50) was determined from the plot. The IC50 may be directly converted mathematically to Ki, which is a measure of the receptor binding affinity of the compounds under the defined assay conditions.

[2] = molecular target: purified αllbβ3 receptor (Homo sapiens, UniProt P05106+P08514); test: similar competitive binding assay with 125I-echistatin on αllbβ3 receptor, used for the specificity index; conditions: Table 16; specificity index IC50 αllbβ3/ IC50 αvβ3
Method: To measure the relative affinity of the test compounds for αvβ3 receptors versus affinity for αllbβ3 receptors, similar competitive assays were carried out using purified αllbβ3 receptor and ^125I-echistatin (iodinated using the lactoperoxidase method). The specificity index, which is a measure of the relative binding affinity for αvβ3, versus αllbβ3, may be determined by dividing the IC50 value for αllbβ3 by the IC50 value for αvβ3.

## Cn1c(CN(Cc2ccc(C(=O)NC[C@H](NC(=O)OCc3ccccc3)C(=O)O)cc2)C(=O)NC2CCCCC2)nc2ccccc21 [Example 5-92]
[1]
  IC50: 7.6 nM
[2]
  Specificity αllbβ3 / αvβ3: 174

## CC(C)NC(=O)N(Cc1ccc(C(=O)NC[C@H](NC(=O)OCc2ccccc2)C(=O)O)cc1)Cc1nc2ccccc2n1C [Example 5-93]
[1]
  IC50: 6.7 nM
[2]
  Specificity αllbβ3 / αvβ3: 124

## O=C(N[C@@H](CNC(=O)c1ccc(CN(Cc2nc3cc(Cl)ccc3[nH]2)C(=O)NC2CCCCC2)cc1)C(=O)O)OCc1ccccc1 [Example 5-94]
[1]
  IC50: 3.8 nM
[2]
  Specificity αllbβ3 / αvβ3: 399

## CC(C)NC(=O)N(Cc1ccc(C(=O)NC[C@H](NC(=O)OCc2ccccc2)C(=O)O)cc1)Cc1nc2cc(Cl)ccc2[nH]1 [Example 5-95]
[1]
  IC50: 1.7 nM
[2]
  Specificity αllbβ3 / αvβ3: 775

## O=C(O)CNC(=O)N(Cc1ccc(C(=O)NC[C@H](NC(=O)OCc2ccccc2)C(=O)O)cc1)Cc1nc2ccccc2[nH]1 [Example 5-96, N^3-[4-[(Benzimidazol-2-yl)methyl] [[(carboxymethyl)amino]carbonyl]aminomethylbenzoyl]-N^2-Cbz-L-2,3-diaminopropionic acid]
[1]
  IC50: 3.4 nM
[2]
  Specificity αllbβ3 / αvβ3: 528

## CCCCOC(=O)N[C@@H](CNC(=O)c1ccc(CN(Cc2nc3ccccc3[nH]2)C(=O)NCC(=O)O)cc1)C(=O)O [Example 5-97, N^3-[4-[(Benzimidazol-2-yl)methyl][[(carboxymethyl)amino]carbonyl]aminomethylbenzoyl]-N^2-(n-butoxycarbonyl)-L-2,3-diaminopropionic acid]
[1]
  IC50: 4.3 nM
[2]
  Specificity αllbβ3 / αvβ3: 2600
